Data taken from patent US20260327211A1, “MODULATORS OF A POTASSIUM CHANNEL AND OF TRPV1 CHANNEL AND USES THEREOF” (Bsense Bio Therapeutics Ltd., priority 2023, published 2026).
“Also recorded” adds a separate entry of the source.

Key:
Format in all cases: cell-based
[1] = system: human sensory neurons; test: Human NPC-derived sensory neurons, spontaneous activity; conditions: 5 μM
Experimental: Cell culture and differentiation: Human PSC-derived neural progenitor cells (Stem Cell Catalog No. 70901 and 70902) were cultured and expanded on Matrigel coated 6-wells plates, using neuronal progenitor medium containing: Neurobasal media supplemented by non-essential amino-acids, 1%; Glutamax, 1%; B27, 2%, FGF2, 20 ng/mL). hNPC were then plated onto PDL and Matrigel coated 12 mm coverglass at a density of about 50,000 cells/well of a 6 well, in DMEM/F12; 10% KSR; 1% P/S and A83-01 (2 μM) from days 0-5. From days 0-9 the medium contained also CHIR99021 (6 μM). From Day 3-9 the medium included RO4929097 (2 μM) and SU5402 (3 μM). […]
Electrophysiology: To characterize the neuronal properties with electrophysiology recordings, round small neurons (20-40 μm in diameter) were selected from day 31 and onwards. Cells were monitored for their polarized negative membrane potential and for their ability to evoke consistent spikes train responses to repeated positive current injections as a mark of achieving electrical maturation before testing the effect of the tested compounds on neuronal excitability. Membrane excitability was monitored using current clamp. […]
The inhibitory potency of the newly designed compounds as described herein was evaluated based on their ability to reduce the spontaneous neuronal activity.

[2] = system: rat DRG neurons; test: Rat DRG neurons, current-evoked action potential firing
Description: rDRGs isolation and primary cell culture: Briefly, rat DRGs from all spinal levels were carefully removed and collected in HBSS on ices, connective tissue of the epineurium surrounding the ganglion was removed and cells were dissociated using Collagenase-II and trypsin dissociation solutions. DRGs were dissociated further, passed through glass Pasteur pipettes to obtain single cells. Then dissociation solution was changed to 5% FBS containing DRG neuronal culture medium and plated onto ECL coated 12 mm cover glass.
Additional rDRGs experiments were performed using Lonza primary neonatal rat (Sprague Dawley neonatal; P2,3) DRG neurons (R-DRG-505, Lonza) plated and cultured according to the manufacturer.
Electrophysiology: Cells were used for electrophysiological recording at least 48 hours following rDRG isolation or at least 5 days following cryopreserved rDRG thawing. Round small neurons (20-40 μm in diameter) were selected for electrophysiology recordings, to select for small nociceptive neurons that propagate pain sensation in vivo and that are expressing both Kv7.2/3 and TRPV1 targets. Membrane excitability was monitored using current clamp configuration of the whole-cell patch-clamp technique. Positive current steps of different amplitude were injected (400 ms) to induce spikes trains before and following compound application.

[3] = target: T1, hTRPV1 (Homo sapiens, UniProt Q8NER1); test: hTRPV1 dual activity electrophysiology, CHO cells co-expressing hKv7.2/3 and hTRPV1; conditions: 100 nM
T1 construct: CDS of NM_080704.4, inserted into the multiple cloning site of pcDNA3.1(+); host or cells: CHO/hKv7.2/3

[4] = system: hTRPV1; test: as above; conditions: rat DRG and dual CHO

T1 sequence (Q8NER1 whole entry): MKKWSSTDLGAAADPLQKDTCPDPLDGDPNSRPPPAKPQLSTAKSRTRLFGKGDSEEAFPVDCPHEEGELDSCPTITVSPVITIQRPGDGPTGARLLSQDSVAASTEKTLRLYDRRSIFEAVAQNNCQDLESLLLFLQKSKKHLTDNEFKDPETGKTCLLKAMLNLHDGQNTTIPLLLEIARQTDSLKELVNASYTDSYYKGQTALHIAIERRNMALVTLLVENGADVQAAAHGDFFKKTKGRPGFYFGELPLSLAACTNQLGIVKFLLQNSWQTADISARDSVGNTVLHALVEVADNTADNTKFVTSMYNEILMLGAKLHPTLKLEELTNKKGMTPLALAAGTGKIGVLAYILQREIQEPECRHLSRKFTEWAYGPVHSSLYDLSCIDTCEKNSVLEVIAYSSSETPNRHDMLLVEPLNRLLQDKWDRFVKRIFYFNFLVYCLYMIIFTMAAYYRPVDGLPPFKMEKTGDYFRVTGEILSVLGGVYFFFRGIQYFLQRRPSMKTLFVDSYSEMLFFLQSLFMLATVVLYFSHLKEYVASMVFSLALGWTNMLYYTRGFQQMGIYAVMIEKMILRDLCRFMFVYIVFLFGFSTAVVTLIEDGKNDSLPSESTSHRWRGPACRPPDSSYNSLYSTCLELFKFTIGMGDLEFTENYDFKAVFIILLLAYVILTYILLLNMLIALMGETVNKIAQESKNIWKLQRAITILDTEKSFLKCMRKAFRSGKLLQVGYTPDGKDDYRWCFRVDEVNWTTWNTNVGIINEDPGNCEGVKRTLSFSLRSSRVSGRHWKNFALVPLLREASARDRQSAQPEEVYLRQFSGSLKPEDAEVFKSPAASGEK

For `COC[C@@H](CO)NC(=O)Cc1cc(Sc2c(Cl)cc(F)cc2C(C)C)ccc1F` [Compound 415], the “Spontaneous activity of human sensory neurons” value [1] was “significantly reduced”.

In the case of `Cc1cn(-c2ccc(F)c(CC(=O)NCC(C)(C)O)c2)c2c(Cl)cc(Cl)cc12` [Compound 421-6], the “Inhibition of current induced AP response” value ([2]; 100 nM) is reported as 10.1±3.4%, the “Inhibition of current induced AP response” value ([2]; 500 nM) is reported as 51.2±8.4% and the “Inhibition of AP response to current” value ([2]; 2 μM) is reported as 77.7±5.6%. For the same molecule, the IC50 ([2]; read-out: IC50 for inhibition of current induced AP responses) was ~0.5 µM.

For `O=C(Cc1cc(-n2cc(Cl)c3cc(Cl)cc(Cl)c32)ccc1F)NCCO` [Compound 627], the “hTRPV1 inhibition without hKv7.2/3 activation” value [3] was “lack of hTRPV1 inhibition-potency gain; also recorded: TRPV1 could not be inhibited even at 100 nM”.

`O=C(Cc1nccc(-n2cc(Cl)c3cc(Cl)cc(Cl)c32)n1)NC1COCC1O` (stereo not shown) [Compound 760] gave an IC50 [4] of 0.0001 to 0.00023 µM.
